# In US20250034159A1, “INHIBITORS OF EPIDERMAL GROWTH FACTOR RECEPTOR” (ORIC Pharmaceuticals, Inc., priority 2021, published 2025):
# Columns and labels:
# BaF3_EGFR LR/CS cells = experiment: Biological Activity Assay D: BaF3 cell proliferation assay, EGFR L858R/C797S mutant (BaF3 LR/CS); assay type: cell-based; conditions: Ba/F3 EGFR; BaF3_EGFR LR/CS cells, ~72 hours, CellTiter-Glo; read-out: BaF3 LR/CS IC50
# Ba/F3_EGFR WT cells = experiment: Biological Activity Assay D: BaF3 cell proliferation assay, EGFR wild-type (BaF3 WT); assay type: cell-based; conditions: Ba/F3 EGFR; Ba/F3_EGFR WT cells, ~72 hours, CellTiter-Glo; read-out: BaF3 WT IC50
# BaF3_EGFR d19/CS cells = experiment: Biological Activity Assay D: BaF3 cell proliferation assay, EGFR exon 19 deletion/C797S (BaF3 d19/CS); assay type: cell-based; conditions: Ba/F3 EGFR; BaF3_EGFR d19/CS cells, ~72 hours, CellTiter-Glo; read-out: BaF3 d19/CS IC50
# [1] = target: recombinant human EGFR exon 19 deletion/C797S double mutant protein (Homo sapiens (Human), UniProt P00533, C797S/DEL746-750); experiment: Biological Activity Assay C: biochemical assay against EGFR exon 19 deletion/C797S protein (EGFR d19/CS)
# Procedure, shortened: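 Compounds were tested as 16-point serial dilutions (final DMSO 2.5%) with a Phosphosens peptide sensor/ATP working solution (40 uM/4 mM). The signal was read kinetically over 90 cycles at 120 s intervals. IC50s came from 4-parameter fits of per-well slopes.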
# Sequence of recombinant human EGFR exon 19 deletion/C797S double mutant protein (P00533 other isoform, or with tags, fused parts or gaps C797S/del 1-668/del 746-750 limits assumed): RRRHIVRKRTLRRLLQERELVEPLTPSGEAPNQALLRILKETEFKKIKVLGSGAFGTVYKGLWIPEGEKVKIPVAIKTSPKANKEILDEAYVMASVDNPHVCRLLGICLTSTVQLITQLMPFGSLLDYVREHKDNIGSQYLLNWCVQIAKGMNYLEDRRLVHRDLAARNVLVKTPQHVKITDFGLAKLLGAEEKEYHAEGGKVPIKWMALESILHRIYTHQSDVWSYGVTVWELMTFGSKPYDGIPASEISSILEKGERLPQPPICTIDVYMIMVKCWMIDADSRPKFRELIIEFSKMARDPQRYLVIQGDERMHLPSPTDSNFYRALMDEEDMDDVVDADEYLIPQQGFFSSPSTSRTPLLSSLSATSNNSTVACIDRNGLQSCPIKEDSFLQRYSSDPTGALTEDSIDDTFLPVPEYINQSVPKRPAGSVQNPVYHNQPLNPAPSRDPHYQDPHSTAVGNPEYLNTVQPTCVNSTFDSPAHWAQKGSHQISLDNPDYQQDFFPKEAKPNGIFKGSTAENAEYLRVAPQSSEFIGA
SMILES,IC50 (BaF3_EGFR LR/CS cells) [nM],IC50 (Ba/F3_EGFR WT cells) [nM],IC50 (BaF3_EGFR d19/CS cells) [nM],IC50 [1] [nM]
"CC(C)(C)OC(=O)N1CCC=C(c2cc3c(-c4cn(C5CS(=O)(=O)C5)nc4-c4ccc(F)cc4)ncnc3o2)C1 [Example 146, tert-butyl 5-{4-[1-(1,1-dioxo-1λ6-thietan-3-yl)-3-(4-fluorophenyl)-1H-pyrazol-4-yl]furo[2,3-d]pyrimidin-6-yl}-3,6-dihydropyridine-1(2H)-carboxylate]",928,7880,525,4.18
"NC(=O)CCCn1cc(-c2ncnc3oc(-c4ccccc4)cc23)c(-c2ccc(F)cc2)n1 [Example 147, 4-[3-(4-Fluorophenyl)-4-(6-phenylfuro[2,3-d]pyrimidin-4-yl)-1H-pyrazol-1-yl]butanamide]",73.3,1380,68.6,0.26
"CN1CCC(n2cc(-c3ncnc4oc(-c5ccccc5)cc34)c(-c3ccc(F)cc3)n2)C1=O (stereo not shown) [Example 148, 3-[3-(4-Fluorophenyl)-4-(6-phenylfuro[2,3-d]pyrimidin-4-yl)-1H-pyrazol-1-yl]-1-methylpyrrolidin-2-one]",69.8,1510,92.3,0.61
"CC(=O)N1CCN(c2cc3c(-c4cn(C5CS(=O)(=O)C5)nc4-c4ccc(F)cc4)ncnc3o2)CC1 [Example 149, 3-{4-[6-(4-acetylpiperazin-1-yl)furo[2,3-d]pyrimidin-4-yl]-3-(4-fluorophenyl)-1H-pyrazol-1-yl}-1λ6-thietane-1,1-dione]",2770,> 20000,1160,3.72
"Fc1ccc(-c2nn([C@H]3C[C@@H](F)C3)cc2-c2ncnc3oc(-c4ccccc4)cc23)cc1 [Example 150, 4-{1-[(1s,3s)-3-fluorocyclobutyl]-3-(4-fluorophenyl)-1H-pyrazol-4-yl}-6-phenylfuro[2,3-d]pyrimidine]",42.2,3320,69.9,1.42
"O=S1(=O)CC(n2cc(-c3ncnc4oc(C5=CNCCC5)cc34)c(-c3ccc(F)cc3)n2)C1 [Example 154, 3-{3-(4-fluorophenyl)-4-[6-(1,4,5,6-tetrahydropyridin-3-yl)furo[2,3-d]pyrimidin-4-yl]-1H-pyrazol-1-yl}-1λ6-thietane-1,1-dione]",630,16300,440,0.75
"CC(=O)N1C=C(c2cc3c(-c4cn(C5CS(=O)(=O)C5)nc4-c4ccc(F)cc4)ncnc3o2)CCC1 [Example 155, 3-{4-[6-(1-acetyl-1,4,5,6-tetrahydropyridin-3-yl)furo[2,3-d]pyrimidin-4-yl]-3-(4-fluorophenyl)-1H-pyrazol-1-yl}-1λ6-thietane-1,1-dione]",65,1160,63.8,0.41
"FCCCn1cc(-c2ncnc3oc(-c4ccccc4)cc23)c(-c2ccc(F)cc2)n1 [Example 156, 4-[3-(4-fluorophenyl)-1-(3-fluoropropyl)-1H-pyrazol-4-yl]-6-phenylfuro[2,3-d]pyrimidine]",18.8,1480,30.5,0.31
"CC(C)(Cn1cc(-c2ncnc3oc(-c4ccccc4)cc23)c(-c2ccc(F)cc2)n1)C(N)=O [Example 158, 3-[3-(4-fluorophenyl)-4-(6-phenylfuro[2,3-d]pyrimidin-4-yl)-1H-pyrazol-1-yl]-2,2-dimethylpropanamide]",15.1,782,33,0.26
"O=S1(=O)CC(n2cc(-c3ncnc4oc(C5=CCCNC5)cc34)c(-c3ccc(F)cc3)n2)C1 [Example 159, 3-{3-(4-fluorophenyl)-4-[6-(1,2,5,6-tetrahydropyridin-3-yl)furo[2,3-d]pyrimidin-4-yl]-1H-pyrazol-1-yl}-1λ6-thietane-1,1-dione]",511,6050,267,3.79
